# Results published in US20240285670A1, “THERAPEUTIC TREATMENT OF TUMORS BY BLOCKING THE HEME SYNTHESIS-EXPORT AXIS” (Università degli Studi di Torino, priority 2021, published 2024).
# Columns and labels:
# Format in all cases: cell-based, human
# ALAS1 = assay: qRT-PCR analysis of ALAS1 expression in SKCO1 cells
# SH-SY5Y cells = assay: Heme content in SHSY-5Y cells
# Description: (A) Frequency (%) of patient tumors with overexpression of FLVCR1 compared to their matched normal tissues across multiple cancer types. The number of patients showing tumor FLVCR1 overexpression relative to the total number of patients examined are indicated in the plot. Data derive from the BioXpress (Wan et al., 2015). […] Transcript abundance, normalized to beta-actin mRNA expression (for SHSY-5Y cells) or to 18s mRNA (for BTECs), is expressed as a fold increase over a calibrator sample. Data represent mean±SEM, n=4. For statistical analyses, an unpaired Student's t-test was used; ***p<0.001. (C, E) Western blot analysis of FLVCR1a expression in SHSY-5Y cells (C) and BTECs (E). Vinculin expression is shown as a loading control. Band intensities were measured by densitometry and normalized to vinculin expression. […] Values are expressed as pmol heme/mg protein. […] Values are expressed as pmol heme/mg protein. […]
# (A) Heme content in SHSY5Y cells non-treated (NT) or treated with 5 mM ALA for 15 hours. Values are expressed as pmol heme/mg protein. […] Transcript abundance, normalized to beta-actin mRNA expression, is expressed as a fold increase over a calibrator sample. […] Transcript abundance, normalized to beta-actin mRNA expression, is expressed as a fold increase over a calibrator sample. […] Band intensities were measured by densitometry and normalized to beta-actin expression. […]
# C80 cells = assay: TCA cycle flux in C80 cells; conditions: FLVCR1a-silenced vs scramble shRNA C80 cells
# Description: TCA cycle flux is reported in the centre of the figure and expressed as pmol CO2/h/mg protein. Data represent mean±SEM, n=3. For statistical analyses, an unpaired Student's t-test was used. **=p<0.01. Moreover, TCA cycle enzymes activities are reported in boxes and expressed as mU/mg mitochondrial proteins. Data represent mean±SEM, n=3. For statistical analyses, an unpaired Student's t-test was used; *=p<0.05, ***=p<0.001. […] Results are expressed as pmol CO2/h/mg protein. Data represent mean±SEM, n=3. For statistical analyses, an unpaired Student's t-test was used; *=p<0.05, **=p<0.01.
# The glucose flux through TCA cycle was measured by radiolabeling cells with 2 μCi/ml [6-^14C]-glucose (55 mCi/mmol; PerkinElmer, Waltham, MA, USA, catalog n° NEC045X). Cell suspensions were incubated for 1 hour in a closed experimental system to trap the ^14CO2 developed from [^14C]-glucose. The reaction was stopped by injecting 0.5 ml of 0.8N HClO4. The amount of glucose transformed into CO2 through the TCA cycle was calculated as described (Riganti et al., 2004) and expressed as pmoles CO2/h/mg cell proteins.
Molecule,"ALAS1 mRNA levels (ALAS1; SKCO1 cells, 5 mM ALA for 24 hours vs untreated)",heme content inside the cells (SH-SY5Y cells; 5 mM ALA for 15 hours vs non-treated),TCA cycle flux (C80 cells),ALAS1 expression (qRT-PCR) (ALAS1; FLVCR1a-silenced vs scramble shRNA SKCO1 cells),"heme accumulation upon stimulation of de-novo heme biosynthesis (SH-SY5Y cells; FLVCR1a-silenced vs scramble shRNA, 5 mM 5-ALA for 15 hours)"
"Cl.NCC(=O)CCC(=O)O [5-ALA, 5-Aminolevulinic acid hydrochloride]",decreased,promoted heme accumulation inside the cells,–,–,–
"FLVCR1a shRNA: shRNA specifically down-regulating FLVCR1a without targeting FLVCR1b; pLKO.1 lentiviral clone TRCN0000059599, antisense SEQ ID No.: 2 (antisense TTGCTAATGATGCTGTACTGG; sense CCAGTACAGCATCATTAGCAA)",–,–,Increased TCA cycle flux,reduced ALAS1 expression,higher heme accumulation than controls
